Data on 35 molecules can be found in a melting point compilation (Tetko et al.; mined from patent text by program, amines drawn as free bases though some values may be those of a salt).

SMILES strings stand for the structures.

`CCOC(=O)c1sc(N2CCNC2=O)nc1C(F)(F)F`: the melting point lay within 185 to 187 °C. In the case of `CCOC(=O)c1cn(Cc2ccccc2)nc1OCc1ccc(OCc2nc(-c3ccco3)oc2C)c(Br)c1` it was 158 to 159 °C; in that of `O=C(O)CCCCCOc1nc(-c2ccccc2)cc(-c2ccccc2)n1`, 127 to 129 °C; in that of `CC(=O)Nc1nc(CCc2ccc(CC(=O)O)s2)cs1`, 172 to 174 °C.

In turn, `O=c1c2c(Cl)cc(Cl)cc2n(Cc2ccccc2)c(=O)n1Cc1cccc(Br)c1` registered a melting point of 121 to 128 °C. In turn, `CCCCCCN(C(=O)Cc1ccccc1)c1nnc(C)s1` displayed a melting point of 90 °C. In the case of `NCC1CC1CCC(=O)Nc1ccc(NC(=O)CCC2CC2CN)c2c1C(=O)c1ccccc1C2=O` (stereo not given) it was 208 to 210 °C; in that of `O=C(Cn1c(=O)n(-c2ccc3c(c2)OCO3)c2ncccc21)N1CCOCC1`, 212 to 213 °C. In turn, `CCOc1csc(C)c1C1OC(=O)NC1=O` (stereo not given) came in with a melting point of 136 to 138 °C.

As for `Cc1c(C(=O)Nc2ccc(N3CCNCC3)c(C#N)c2)cnn1-c1ccc(Cl)cc1`, the melting point was 184 °C. Molecule `COc1ccc(CN(C(=O)C2CCCc3ccc(OC)cc32)c2ccc(OC)cc2)cc1` (stereo not given) had a melting point of 89 to 90 °C. In the case of `COCCNc1nccc(Oc2ccc(NC(=O)c3cc(F)cc(N4CCCCC4)c3)c3ccccc23)n1` it was 87 to 88 °C; in that of `CCCCCCCCCCCCCCCCNc1ccc(C(=O)N(C)C)cc1`, 70 to 72 °C. In the case of `CN(CCCCNC(=O)NCCSCc1csc(NC(=N)N)n1)CCOC(c1ccccc1)c1ccccc1` it was 101 °C. Then `CN(C)C1CCN(C(=O)c2ccc(-c3[nH]nc4c3C(=O)c3c(NC(=O)NN5CCOCC5)cccc3-4)s2)C1` (stereo not given), with 216 to 217 °C.

In turn, `O=CN1CCC(O)(c2ccccc2Cc2ccccc2)CC1` yielded a melting point of 171 to 174 °C. Molecule `COc1ccccc1C(=O)OC(=C1C(=O)N(C(N)=O)c2cc(Cl)c(F)cc21)c1cccs1` registered a melting point of 219 to 221 °C. Then `COC(=O)C=Cc1c(O)cccc1C#CCCCCOC1CCCCO1` (racemic), with 66 to 67.5 °C; and `COc1c(F)cc(CCCn2nnnc2S)cc1F`, with 64 to 65 °C.

`CCn1ncc2c3onc(-c4cccc(C)c4)c3cnc21`: the melting point was in the range of 122 to 123 °C.

For the molecule `CC(=O)C(CCCCCCc1ccc(O)cc1)C(C)=O`, the melting point lay in the range of 68 to 69 °C. In the case of `CC(=O)Nc1nc(CCc2ccc(N)cc2)c(C(=O)NCc2ccc(C(F)(F)F)cc2)s1` it was 199 to 201 °C. In the case of `O=[N+]([O-])c1cnc(-c2nc3ccccc3[nH]2)n1CCO`, the melting point is 217 to 219 °C. In the case of `CCOC(=O)C(CC)Cc1ccc(N2C(=O)c3ccccc3C2=O)cc1` (stereo not given) it was 86 to 87 °C; in that of `Cc1ccc(S(=O)(=O)N2CCCC2c2ccc(Cl)c(C)c2)cc1` (racemic), 103 °C; in that of `O=C(O)CC1(c2ccccc2)Oc2ccc(Cl)cc2O1` (stereo not given), 117 to 119 °C. Then `COC(=O)c1ccc2sc(C(=O)OC)c(O)c2c1Cl`, with 127 to 131 °C; and `NC(=O)[C@H]1CN(c2ccc(C3CCOCC3)c(F)c2)C(=O)O1`, with 153 to 156 °C.

With `CC(C)(C)OC(=O)c1ncn2c1COc1ccccc1-2`, the melting point lay in the range of 119 to 123 °C. The molecule `CCC(C(C)=CC(CNC(=O)c1nc(C)[nH]c1C)=NO)[N+](=O)[O-]` (stereo not given) returned a melting point of 140 to 141 °C. Then `Cc1oc(-c2ccccc2)nc1COc1cccc(N)c1`, with 89 to 90 °C. The molecule `Cn1c(N)cc(=O)n1-c1ccccc1` displayed a melting point of 205 to 215 °C. In the case of `COC1=CCC(OC)(OC)C=C1CCc1ccc(OC)cc1C` it was 71 to 72 °C; in that of `c1cc(-c2cc3nccnc3[nH]2)ccn1`, 324 to 326 °C; in that of `CCOc1cc2cc(CO)c(CO)c(-c3ccnc(-n4ccc5ccccc5c4=O)c3)c2cc1OCC`, 131 to 134 °C.
